In patent US8232283B2, “Raf inhibitors” (Forma Therapeutics, Inc., priority 2008, dated 2012):

Columns and labels:
A-431 [B-Raf wildtype] = assay: Anti-proliferative activity, SRB assay, 72 hours; assay type: cell-based; conditions: Homo sapiens, read-out: CELLULAR IC50 [μM] A-431 [B-Raf wildtype]
Procedure: (§1) Cells were exposed to the test compounds at various concentrations appropriate to determine an IC50, for 72 hours, and cell proliferation was measured using the SRB assay according to Shekan et al (J Natl Cancer Inst (1990) 82, 1107-112) in order to estimate the IC50 values shown in Table 3.
(§2) Briefly, cells were plated in 96 well dishes 24 hours prior to compound addition at the densities specified in Table 11.1.
(§3) The assay was terminated with the addition of ice cold 10% TCA after growth medium has been removed and the plates were incubated over night at 4° C. The plates were then washed 5 times with water and 100 μl of a Sulforhodamine B solution ([…]) was added to each well. The plates were then incubated for 10 minutes at room temperature before removal of unbound dye by washing with 1% acetic acid. The bound dye was solubilized with 10 mM Trizma base and the absorbance read at OD520.
(§4) Inhibitory activity of the compounds was calculated as % inhibition of cell proliferation compared to cells treated with the solvent (DMSO).

[1] = test system: HT-29 [B-Raf V600E mutant]; assay: Anti-proliferative activity, SRB assay, 72 hours; assay type: cell-based; conditions: Homo sapiens, read-out: CELLULAR IC50 [μM] HT-29 [B-Raf V600E mutant]
Procedure: We observed the surprising finding that compounds of the invention were useful in inhibiting proliferation of HT-29 tumor cells (see Table 3).
as §1, §2, §3, §4

SMILES: COn1c(=O)c(-c2cc(NC(=O)c3cc4ccccc4n3C)ccc2Cl)cc2cnc(NCCN(C)C)nc21 [Compound 13, 1-Methyl-1H-indole-2-carboxylic acid {4-chloro-3-[2-(2-dimethylamino-ethylamino)-8-methoxy-7-oxo-7,8-dihydro-pyrido[2,3-d]pyrimidin-6-yl]-phenyl}-amide]
- IC50 (A-431 [B-Raf wildtype]): > 10 µM
- IC50 [1]: < 10 µM

SMILES: COn1c(=O)c(-c2cc(NC(=O)c3cc(Cl)nc(NCCN(C)C)c3)ccc2Cl)cc2cnc(NCCN(C)C)nc21 [Compound 65, 2-Chloro-N-(4-chloro-3-(2-(2-(dimethylamino)ethylamino)-8-methoxy-7-oxo-7,8-dihydropyrido[2,3-d]pyrirnidin-6-yl)phenyl)-6-(2-dimethylaminoethylamino)-isonicotinamide]
- IC50 (A-431 [B-Raf wildtype]): > 10 µM
- IC50 [1]: < 10 µM

SMILES: COn1c(=O)c(-c2cc(NC(=O)c3cc(Cl)nc(N4CCCC4)c3)ccc2Cl)cc2cnc(NCCN(C)C)nc21 [Compound 58, 2-Chloro-N-(4-chloro-3-(2-(2-(dimethylamino)ethylamino)-8-methoxy-7-oxo-7,8-dihydropyrido[2,3-d]pyrimidin-6-yl)phenyl)-6-pyrrolidin-1-yl-isonicotinamide]
- IC50 (A-431 [B-Raf wildtype]): < 10 µM
- IC50 [1]: < 5 µM

SMILES: COn1c(=O)c(-c2cc(NC(=O)c3cc(C(F)(F)F)cc(C(F)(F)F)c3)ccc2Cl)cc2cnc(NCCN(C)C)nc21 [Compound 35, N-{4-Chloro-3-[2-(2-dimethylamino-ethylamino)-8-methoxy-7-oxo-7,8-dihydro-pyrido[2,3-d]pyrimidin-6-yl]-phenyl}-3,5-bis-trifluoromethyl-benzamide]
- IC50 (A-431 [B-Raf wildtype]): > 10 µM
- IC50 [1]: < 5 µM

SMILES: CCNc1cc(C(=O)Nc2ccc(Cl)c(-c3cc4cnc(NCCN(C)C)nc4n(OC)c3=O)c2)cc(Cl)n1 [Compound 63, 2-Chloro-N-(4-chloro-3-(2-(2-(dimethylamino)ethylamino)-8-methoxy-7-oxo-7,8-dihydropyrido[2,3-d]pyrimidin-6-yl)phenyl)-6-ethylamino-isonicotinamide]
- IC50 (A-431 [B-Raf wildtype]): > 10 µM
- IC50 [1]: < 5 µM

SMILES: COn1c(=O)c(-c2cc(NC(=O)Nc3cc(C(F)(F)F)ccc3F)ccc2Cl)cc2cnc(NCCN(C)C)nc21 [Compound 49, 1-{4-Chloro-3-[2-(2-dimethylamino-ethylamino)-8-methoxy-7-oxo-7,8-dihydro-pyrido[2,3-d]pynmidin-6-yl]-phenyl}-3-(2-fluoro-5-trifluoromethyl-phenyl)-urea]
- IC50 (A-431 [B-Raf wildtype]): > 10 µM
- IC50 [1]: < 5 µM

SMILES: COn1c(=O)c(-c2cc(NC(=O)c3nc4ccc(F)cc4[nH]3)ccc2Cl)cc2cnc(NCCN(C)C)nc21 [Compound 40, 6-Fluoro-1H-benzoimidazole-2-carboxylic acid {4-chloro-3-[2-(2-dimethylamino-ethylamino)-8-methoxy-7-oxo-7,8-dihydro-pyrido[2,3-d]pyrimidin-6-yl]-phenyl}-amide]
- IC50 (A-431 [B-Raf wildtype]): > 10 µM
- IC50 [1]: > 10 µM

SMILES: COn1c(=O)c(-c2cc(NC(=O)c3cc(C(C)(C)C)n[nH]3)ccc2Cl)cc2cnc(NCCN(C)C)nc21 [Compound 9, 5-tert-Butyl-2H-pyrazole-3-carboxylic acid {4-chloro-3-[2-(2-dimethylamino-ethylamino)-8-methoxy-7-oxo-7,8-dihydro-pyrido[2,3-d]pyrimidin-6-yl]-phenyl}-amide]
- IC50 (A-431 [B-Raf wildtype]): > 10 µM
- IC50 [1]: > 10 µM

SMILES: COn1c(=O)c(-c2cc(NC(=O)c3cc(Cl)nc(N(C)C)c3)ccc2Cl)cc2cnc(NCCN(C)C)nc21 [Compound 59, 2-Chloro-N-(4-chloro-3-(2-(2-(dimethylamino)ethylamino)-8-methoxy-7-oxo-7,8-dihydropyrido[2,3-d]pyrimidin-6-yl)phenyl)-6-dimethylamino-isonicotinamide]
- IC50 (A-431 [B-Raf wildtype]): > 10 µM
- IC50 [1]: < 5 µM

SMILES: COn1c(=O)c(-c2cc(NC(=O)c3cc(Cl)nc(N4CCCCC4)c3)ccc2Cl)cc2cnc(NCCN(C)C)nc21 [Compound 60, 2-Chloro-N-(4-chloro-3-(2-(2-(dimethylamino)ethylamino)-8-methoxy-7-oxo-7,8-dihydropyrido[2,3-d]pyrimidin-6-yl)phenyl)-6-pyperidin-1-yl-isonicotinamide]
- IC50 (A-431 [B-Raf wildtype]): < 10 µM
- IC50 [1]: < 5 µM
